14 molecules from patent US20190359645A1, “2'3'-CYCLIC DINUCLEOTIDES COMPRISING CARBOCYCLIC NUCLEOTIDE” (Institute of Organic Chemistry and Biochemistry ASCR, V.V.I., priority 2018, published 2019) can be followed below.

This assay addresses WT STING (Homo sapiens, UniProt Q86WV6, H232R). Description: Differential scanning fluorimetry (DSF) with WT STING. It is filed as binding. Particulars: thermal shift, truncated human WT STING 0.1 mg/ml, 150 μM CDN; for ΔTm at 150 µM: read-out: DSF ΔTm WT STING. Further details: truncated human WT STING or AQ STING (amino acid residues 140-343); 8xHis (N, cleaved yes); SUMO (N, cleaved yes); made in house; host or cells: E. coli Rosetta-gami B (DE3). An excerpt: Both WT and AQ human STING (G230A-R^293Q) cDNA were amplified by the use of PCR (Phusion® High-Fidelity DNA Polymerase, cat. # M0530S, NEB, Ipswich, USA) using oligonucleotides hSTING140-BamH-For ([…]) (SEQ ID NO:5) and hSTING379-Not-Rev3 ([…]) (SEQ ID NO:6) from pUNOI-hSTING-WT (cat. # punol-hstingwt, InvivoGen, San Diego, USA) and pUNO1-hSTING-HAQ plasmids (punol-hsting-haq, InvivoGen, San Diego, USA). Purified PCR products were cleaved with restriction enzymes BamHI (cat. # R^0136S, NEB, Ipswich, USA) and NotI (cat. # R^0189S, NEB, Ipswich, USA) and cloned into the pSUMO vector linearized with the identical enzymes. Plasmid pSUMO was created by introducing 8-His-SUMO sequence between NdeI and BamHI sites of pHis-parallel2 plasmid (Clontech, Moutain View, USA). pSUMO-STING WT or pSUMO-STING AQ plasmids thus encoded truncated human WT STING or AQ STING (amino acid residues 140-343) with N-terminal 8×His and SUMO tag.
The recombinant WT STING and AQ STING proteins were overexpressed in Rosetta-gami B (DE3) competent cells (cat. #71136-3, Merck Millipore, Billerica, USA). Bacterial pellets were re-suspended in ice-cold lysis buffer containing 50 mmol·l^−1 TrisCl (cat. # T1503, Sigma Aldrich, Czech Republic) pH 8.0, 300 mmol·l^−1 NaCl, 3 mmol·l^−1 (3-mercaptoethanol (cat. # M6250, Sigma Aldrich, Czech Republic), 10% glycerol (cat. #G5516, Sigma Aldrich, Czech Republic) and 20 mmol·l^−1 imidazole (cat. #15513, Sigma Aldrich, Czech Republic) using Dounce homogenizer. DNase I (cat. # D5025, Sigma Aldrich, Czech Republic) and RNase A (cat. # R^6513, Sigma Aldrich, Czech Republic) were added (final concentration 50 μg/ml) together with MgCl2 (final concentration 5 mmol·l^−1) to the homogenate and bacteria were lysed using French Press G-M™ High-Pressure Cell Press Homogenizer (1500 psi, 3 cycles). Lysate was spun 30,000 g for 20 minutes and supernatant was gently stirred with Ni-NTA resin (cat. #745400.25 Macherey-Nagel, Duren, Germany) for 30 minutes. The resin was poured into a chromatography column, washed with 50 ml buffer A (50 mmol·l^−1 TrisCl (pH 8.0), 800 mmol·l^−1 NaCl, 3 mmol·l^−1β-mercaptoethanol; 10% glycerol; 20 mmol·l^−1 imidazole) and 8-His-SUMO tagged STING proteins were eluted with 15 ml buffer A containing 300 mmol·l^−1 imidazole. The eluted proteins were cleaved with recombinant SUMO protease (80 pig/ml of protein solution, cat. #12588018, ThermoFisher, Waltham, USA). The proteins were further purified by size exclusion chromatography using HiLoad 16/60 Superdex 75 (cat. #28989333, GE Healthcare Bio-Sciences, Pittsburgh, USA) in 50 mmol·l^−1 Tris C1 buffer pH 7.4 containing 150 mmol·l^−1 NaCl, and 10% glycerol. Proteins were concentrated with Amicon® Ultra-15 10 K device (cat. # UFC901008, Merck Millipore, Billerica, USA) and flash frozen in liquid N2.
WT and AQ allelic forms of STING protein were diluted to the final concentration 0.1 mg/ml in 100 mmol·l^−1 TrisCl buffer pH 7.4 containing, 150 mmol·l^−1 NaCl, 1:500 SYPRO Orange (cat. # S6650, ThermoFisher, Waltham, USA) and 150 μM CDN or water. 20 μL solutions of the reaction mixtures were pipetted in triplicates into 96 well optical reaction plates and thermal denaturation of samples were performed on real time PCR cycler (LightCycler® 480 Instrument II—Roche, Basel, Switzerland). The first derivative of the thermal denaturation curves was performed to calculate denaturing temperatures of STING-CDN complexes and STING apoproteins. The thermal shift for each CDN was calculated by subtracting the average denaturing temperature of STING apoprotein from the average denaturing temperature of STING CDN complex.
For orientation: In DSF a fluorescence change marks the thermal transition of the protein.

The structures appear in SMILES notation.

Chain of WT STING (Q86WV6 140-343 H232R): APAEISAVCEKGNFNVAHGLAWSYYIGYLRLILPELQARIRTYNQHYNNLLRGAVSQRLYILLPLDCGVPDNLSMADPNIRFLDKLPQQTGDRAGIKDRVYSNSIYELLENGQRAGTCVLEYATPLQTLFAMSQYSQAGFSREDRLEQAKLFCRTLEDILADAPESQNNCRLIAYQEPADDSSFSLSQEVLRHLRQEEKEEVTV

Consider `CSc1ncnc2c1ncn2[C@@H]1O[C@@H]2COP(=O)(O)OC3C(O)[C@@H](COP(=O)(O)OC2C1O)C[C@H]3n1cnc2c(=O)[nH]cnc21` (stereo partly drawn) [Compound 125, (1S,6R,8R,9R,10S,15R,17R,18R)-3,9,12,18-tetrahydroxy-8-[16-(methylsulfanyl)-9H-purin-9-yl]-17-(6-oxo-6,9-dihydro-1H-purin-9-yl)-2,4,7,11,13-pentaoxa-3λ^5,12λ^5-diphosphatricyclo[13.2.1.0^6,10]octadecane-3,12-dione], for which the thermal shift (ΔTm) at 150 µM amounted to 4.2 °C. Turning to `Nc1ncnc2c1ncn2[C@@H]1O[C@@H]2COP(=O)(O)OC3C(O)[C@@H](COP(=O)(O)OC2C1O)C[C@H]3n1cnc2c(=O)[nH]cnc21` (stereo partly drawn) [Compound 121, (6R,8R,15R,17R)-8-(6-amino-9H-purin-9-yl)-3,9,12,18-tetrahydroxy-17-(6-oxo-6,9-dihydro-1H-purin-9-yl)-2,4,7,11,13-pentaoxa-3λ^5,12λ^5-diphosphatricyclo[13.2.1.0^6,10]octadecane-3,12-dione], the “DSF ΔTm WT STING” value worked out at 9.4 °C. Regarding `Nc1ncnc2c1ncn2[C@@H]1O[C@@H]2COP(=O)(S)O[C@@H]3[C@H](F)[C@@H](COP(=O)(S)O[C@H]2[C@H]1F)C[C@H]3n1cnc2c(=O)[nH]cnc21` (single isomer, unassigned) [Compound 128a], the ΔTm at 150 µM was determined as 9.3 °C. Turning to `CSc1nc(N)nc2c1ncn2[C@@H]1O[C@@H]2COP(=O)(O)OC3C(O)[C@@H](COP(=O)(O)OC2C1O)C[C@H]3n1cnc2c(=O)[nH]c(N)nc21` (stereo partly drawn) [Compound 112, (6R,8R,15R,17R)-8-[2-amino-6-(methylsulfanyl)-9H-purin-9-yl]-17-(2-amino-6-oxo-6,9-dihydro-1H-purin-9-yl)-3,9,12,18-tetrahydroxy-2,4,7,11,13-pentaoxa-3λ^5,12λ^5-diphosphatricyclo[13.2.1.0^6,10]octadecane-3,12-dione], the ΔTm at 150 µM came to 0.6 °C. Same read-out and setting: the result for `Nc1nc2c(ncn2[C@@H]2C[C@@H]3COP(=O)(O)OC4C(O)[C@H](n5cnc6c(=O)[nH]cnc65)O[C@@H]4COP(=O)(O)OC2C3O)c(=O)[nH]1` (stereo partly drawn) [Compound 104, (6R,8R,15R,17R)-17-(2-amino-6-oxo-6,9-dihydro-1H-purin-9-yl)-3,9,12,18-tetrahydroxy-8-(6-oxo-6,9-dihydro-1H-purin-9-yl)-2,4,7,11,13-pentaoxa-3λ^5,12λ^5-diphosphatricyclo[13.2.1.0^6,10]octadecane-3,12-dione] reads 5 °C. Turning to `Nc1ncnc2c1ccn2[C@@H]1O[C@@H]2COP(=O)(O)OC3C(O)[C@@H](COP(=O)(O)OC2C1O)C[C@H]3n1cnc2c(=O)[nH]cnc21` (stereo partly drawn) [Compound 122, (6R,8R,15R,17R)-8-{4-amino-7H-pyrrolo[2,3-d]pyrimidin-7-yl}-3,9,12,18-tetrahydroxy-17-(6-oxo-6,9-dihydro-1H-purin-9-yl)-2,4,7,11,13-pentaoxa-3λ^5,12λ^5-diphosphatricyclo[13.2.1.0^6,10]octadecane-3,12-dione], the shift in melting temperature (ΔTm) at 150 µM is 6.7 °C.

For the molecule `Nc1nc(N)c2ncn([C@@H]3O[C@@H]4COP(=O)(O)OC5C(O)[C@@H](COP(=O)(O)OC4C3O)C[C@H]5n3cnc4c(=O)[nH]c(N)nc43)c2n1` (stereo partly drawn) [Compound 105, (6R,8R,15R,17R)-17-(2-amino-6-oxo-6,9-dihydro-1H-purin-9-yl)-8-(2,6-diamino-9H-purin-9-yl)-3,9,12,18-tetrahydroxy-2,4,7,11,13-pentaoxa-3λ^5,12λ^5-diphosphatricyclo[13.2.1.0^6,10]octadecane-3,12-dione], the ΔTm at 150 µM came to 5.2 °C. Same read-out and setting: the figure for `CSc1ncnc2c1ncn2[C@@H]1O[C@@H]2COP(=O)(O)OC3C(O)[C@@H](COP(=O)(O)OC2C1O)C[C@H]3n1cnc2c(=O)[nH]c(N)nc21` (stereo partly drawn) [Compound 110, (6R,8R,15R,17R)-17-(2-amino-6-oxo-6,9-dihydro-1H-purin-9-yl)-3,9,12,18-tetrahydroxy-8-[6-(methylsulfanyl)-9H-purin-9-yl]-2,4,7,11,13-pentaoxa-3λ^5,12λ^5-diphosphatricyclo[13.2.1.0^6,10]octadecane-3,12-dione] is 4.9 °C; for `Nc1nc2c(ncn2[C@@H]2C[C@@H]3COP(=O)(O)OC4C(O)[C@H](n5cnc6c(N)ncnc65)O[C@@H]4COP(=O)(O)OC2C3O)c(=O)[nH]1` (stereo partly drawn) [Compound 102, (6R,8R,15R,17R)-17-(2-amino-6-oxo-6,9-dihydro-1H-purin-9-yl)-8-(6-amino-9H-purin-9-yl)-3,9,12,18-tetrahydroxy-2,4,7,11,13-pentaoxa-3λ^5,12λ^5-diphosphatricyclo[13.2.1.0^6,10]octadecane-3,12-dione] it is 13.3 °C; for `Nc1ncnc2c1c(I)cn2[C@@H]1O[C@@H]2COP(=O)(O)OC3C(O)[C@@H](COP(=O)(O)OC2C1O)C[C@H]3n1cnc2c(=O)[nH]cnc21` (stereo partly drawn) [Compound 124, (6R,8R,15R,17R)-8-{4-amino-5-iodo-7H-pyrrolo[2,3-d]pyrimidin-7-yl}-3,9,12,18-tetrahydroxy-17-(6-oxo-6,9-dihydro-1H-purin-9-yl)-2,4,7,11,13-pentaoxa-3λ^5,12λ^5-diphosphatricyclo[13.2.1.0^6,10]octadecane-3,12-dione] it is 5.6 °C.

On to `Nc1ncnc2c1ncn2[C@@H]1O[C@@H]2COP(=O)(S)O[C@@H]3[C@H](F)[C@@H](COP(=O)(S)O[C@H]2[C@H]1F)C[C@H]3n1cnc2c(=O)[nH]cnc21` (single isomer, unassigned) [Compound 128b], for which the “DSF ΔTm WT STING” value is 7.9 °C.

As for `Cc1cn([C@@H]2O[C@@H]3COP(=O)(O)OC4C(O)[C@@H](COP(=O)(O)OC3C2O)C[C@H]4n2cnc3c(=O)[nH]cnc32)c2ncnc(N)c12` (stereo partly drawn) [Compound 123, (6R,8R,15R,17R)-8-{4-amino-5-methyl-7H-pyrrolo[2,3-d]pyrimidin-7-yl}-3,9,12,18-tetrahydroxy-17-(6-oxo-6,9-dihydro-1H-purin-9-yl)-2,4,7,11,13-pentaoxa-3λ^5,12λ^5-diphosphatricyclo[13.2.1.0^6,10]octadecane-3,12-dione], the thermal shift (ΔTm) at 150 µM came to 6.3 °C. On to `Nc1ncnc2c1ncn2[C@@H]1O[C@@H]2COP(=O)(S)O[C@@H]3[C@H](F)[C@@H](COP(=O)(S)O[C@H]2[C@H]1F)C[C@H]3n1cnc2c(=O)[nH]cnc21` (single isomer, unassigned) [Compound 128d], for which the “DSF ΔTm WT STING” value turned out to be 13.4 °C. On to `Nc1nc2c(ncn2[C@@H]2C[C@@H]3COP(=O)(O)OC4C(N)[C@H](n5cnc6c(N)ncnc65)O[C@@H]4COP(=O)(O)OC2C3O)c(=O)[nH]1` (stereo partly drawn) [Compound 109, (6R,8R,15R,17R)-9-amino-17-(2-amino-6-oxo-6,9-dihydro-1H-purin-9-yl)-8-(6-amino-9H-purin-9-yl)-3,12,18-trihydroxy-2,4,7,11,13-pentaoxa-3λ^5,12λ^5-diphosphatricyclo[13.2.1.0^6,10]octadecane-3,12-dione], for which the thermal shift (ΔTm) at 150 µM was 5.6 °C.

What is called ΔTm is the change in melting temperature against a reference sample.
